According to article PMC5361737, “Potent and Selective KDM5 Inhibitor Stops Cellular Demethylation of H3K4me3 at Transcription Start Sites and Proliferation of MM1S Myeloma Cells” (Cell Chemical Biology, 2017):
Entries after “also recorded” stand apart in the source; their conditions may differ.

Experiments:
mu (MOP) (h) = mu (MOP) (h) (Homo sapiens, UniProt P35372); assay: Cerep Express Panel, agonist radioligand; assay type: binding; conditions: read-out: % Inhibition of reference (10 µM)
5-HT2A (h) = 5-HT2A (h) (Homo sapiens, UniProt P28223); assay: Cerep Express Panel, antagonist radioligand; assay type: binding; conditions: read-out: % Inhibition of reference (10 µM)
Na+ channel (site 2) = assay: Cerep Express Panel, antagonist radioligand; assay type: binding; conditions: 10 µM
sst (non-selective) = assay: Cerep Express Panel, agonist radioligand; assay type: binding; conditions: 10 µM
KV channel = assay: Cerep Express Panel, antagonist radioligand; assay type: binding
delta 2 (DOP) (h) = delta 2 (DOP) (h) (Homo sapiens, UniProt P41143); assay: Cerep Express Panel, agonist radioligand; assay type: binding; conditions: read-out: % Inhibition of reference (10 µM)
5-HT2B (h) = 5-HT2B (h) (Homo sapiens, UniProt P41595); assay: Cerep Express Panel, agonist radioligand; assay type: binding; conditions: read-out: % Inhibition of reference (10 µM)
FIH = FIH (Homo sapiens, UniProt Q9NWT6); assay: 2-Oxoglutarate oxygenase assay panel, MALDI-TOF assay; assay type: biochemical
5-HT1B = 5-HT1B (Rattus norvegicus, UniProt P28564); assay: Cerep Express Panel, antagonist radioligand; assay type: binding; conditions: read-out: % Inhibition of reference (10 µM)
A3 (h) = A3 (h) (Homo sapiens, UniProt P0DMS8); assay: Cerep Express Panel, agonist radioligand; assay type: binding; conditions: read-out: % Inhibition of reference (10 µM)
SKCa channel = assay: Cerep Express Panel, antagonist radioligand; assay type: binding
KDM3B = KDM3B (Homo sapiens, UniProt Q7LBC6); assay: 2-Oxoglutarate oxygenase assay panel, AlphaScreen assay; assay type: biochemical; conditions: ± SEM
5-HT1A (h) = 5-HT1A (h) (Homo sapiens, UniProt P08908); assay: Cerep Express Panel, agonist radioligand; assay type: binding; conditions: read-out: % Inhibition of reference (10 µM)
GABA (non-selective) = assay: Cerep Express Panel, agonist radioligand; assay type: binding
[1] = system: cell line derived from human mesenchymal stem cells; assay: Cell viability, mesenchymal stem cells; assay type: cell-based; conditions: treated for 7 days
Text: (§1) Figure S2 related to Figure 1 KDM5B Biochemical assay at different 2 -OG
(§2) Stem Cells (B) treated for 7 days. Data plotted represents the mean and standard deviation of four independent
(§3) 2OG Concentration IC50 (mM) Ki […]

A1 (h) = A1 (h) (Homo sapiens, UniProt P30542); assay: Cerep Express Panel, antagonist radioligand; assay type: binding; conditions: read-out: % Inhibition of reference (10 µM)
5-HT transporter (h) = target: T1, 5-HT transporter (h) (Homo sapiens, UniProt P31645); assay: Cerep Express Panel, antagonist radioligand; assay type: binding; conditions: read-out: % Inhibition of reference (10 µM)
T1 construct: CEREP

[2] = system: Ca2+ channel (L, verapamil site) (phenylalkylamine); assay: Cerep Express Panel, antagonist radioligand; assay type: binding
[3] = system: range of other multiple myeloma cell lines; assay: Cell viability, other multiple myeloma cell lines; assay type: cell-based; conditions: treated for 7 days
Text: as §1, §2, §3

D2S (h) = D2S (h) (Homo sapiens, UniProt P14416); assay: Cerep Express Panel, antagonist radioligand; assay type: binding; conditions: read-out: % Inhibition of reference (10 µM)
NTS1 (NT1) (h) = NTS1 (NT1) (h) (Homo sapiens, UniProt P30989); assay: Cerep Express Panel, agonist radioligand; assay type: binding; conditions: read-out: % Inhibition of reference (10 µM)
NOP (ORL1) (h) = NOP (ORL1) (h) (Homo sapiens, UniProt P41146); assay: Cerep Express Panel, agonist radioligand; assay type: binding; conditions: read-out: % Inhibition of reference (10 µM)
KDM2A = target: T2, KDM2A (Homo sapiens, UniProt Q9Y2K7); assay: 2-Oxoglutarate oxygenase assay panel, AlphaScreen assay; assay type: biochemical; conditions: refers to Table S1
T2 sequence (Q9Y2K7 1-1162): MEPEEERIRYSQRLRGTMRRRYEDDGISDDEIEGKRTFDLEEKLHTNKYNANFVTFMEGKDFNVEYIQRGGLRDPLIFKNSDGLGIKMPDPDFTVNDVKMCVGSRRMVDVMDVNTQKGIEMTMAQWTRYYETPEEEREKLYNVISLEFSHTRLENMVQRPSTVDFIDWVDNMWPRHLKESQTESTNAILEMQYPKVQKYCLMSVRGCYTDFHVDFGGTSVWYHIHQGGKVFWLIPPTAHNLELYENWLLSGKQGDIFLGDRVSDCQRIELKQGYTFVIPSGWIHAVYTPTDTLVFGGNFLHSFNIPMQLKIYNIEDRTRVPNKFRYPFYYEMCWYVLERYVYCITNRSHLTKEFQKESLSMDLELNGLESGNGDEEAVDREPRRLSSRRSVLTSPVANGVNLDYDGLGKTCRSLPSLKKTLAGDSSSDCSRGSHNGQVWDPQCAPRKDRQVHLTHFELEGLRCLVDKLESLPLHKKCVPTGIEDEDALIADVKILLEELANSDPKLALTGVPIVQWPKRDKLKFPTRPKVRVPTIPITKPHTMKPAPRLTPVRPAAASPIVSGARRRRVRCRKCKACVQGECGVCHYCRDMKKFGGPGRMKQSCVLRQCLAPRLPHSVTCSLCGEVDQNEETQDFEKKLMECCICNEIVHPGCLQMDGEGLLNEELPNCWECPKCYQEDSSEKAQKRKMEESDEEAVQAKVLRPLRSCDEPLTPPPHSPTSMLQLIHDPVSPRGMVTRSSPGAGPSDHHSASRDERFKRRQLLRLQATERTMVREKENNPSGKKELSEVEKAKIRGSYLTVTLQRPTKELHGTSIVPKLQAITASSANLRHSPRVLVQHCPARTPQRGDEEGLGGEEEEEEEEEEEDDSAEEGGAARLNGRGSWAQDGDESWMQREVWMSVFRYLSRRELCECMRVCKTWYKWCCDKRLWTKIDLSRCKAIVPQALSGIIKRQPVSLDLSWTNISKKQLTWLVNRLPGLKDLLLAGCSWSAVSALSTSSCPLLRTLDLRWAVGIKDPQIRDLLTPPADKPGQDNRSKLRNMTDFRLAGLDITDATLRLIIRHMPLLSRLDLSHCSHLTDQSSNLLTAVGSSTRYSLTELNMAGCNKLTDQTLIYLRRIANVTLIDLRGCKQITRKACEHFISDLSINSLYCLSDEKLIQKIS

[4] = Liver microsomes stability; assay type: in vitro ADME; conditions: rat liver microsomes
other 2-OG oxygenases = assay: Selectivity panel, other 2-OG oxygenases (AlphaScreen or MALDI-TOF); assay type: biochemical; conditions: AlphaScreen or MALDI-TOF enzymatic assays; read-out: no inhibition below (any of the other 2-OG oxygenases)
dopamine transporter (h) = target: T3, dopamine transporter (h) (Homo sapiens, UniProt Q01959); assay: Cerep Express Panel, antagonist radioligand; assay type: binding; conditions: read-out: % Inhibition of reference (10 µM)
T3 construct: CEREP

CCK1 (CCKA) (h) = CCK1 (CCKA) (h) (Homo sapiens, UniProt P32238); assay: Cerep Express Panel, agonist radioligand; assay type: binding; conditions: read-out: % Inhibition of reference (10 µM)

T1 sequence (P31645 whole entry): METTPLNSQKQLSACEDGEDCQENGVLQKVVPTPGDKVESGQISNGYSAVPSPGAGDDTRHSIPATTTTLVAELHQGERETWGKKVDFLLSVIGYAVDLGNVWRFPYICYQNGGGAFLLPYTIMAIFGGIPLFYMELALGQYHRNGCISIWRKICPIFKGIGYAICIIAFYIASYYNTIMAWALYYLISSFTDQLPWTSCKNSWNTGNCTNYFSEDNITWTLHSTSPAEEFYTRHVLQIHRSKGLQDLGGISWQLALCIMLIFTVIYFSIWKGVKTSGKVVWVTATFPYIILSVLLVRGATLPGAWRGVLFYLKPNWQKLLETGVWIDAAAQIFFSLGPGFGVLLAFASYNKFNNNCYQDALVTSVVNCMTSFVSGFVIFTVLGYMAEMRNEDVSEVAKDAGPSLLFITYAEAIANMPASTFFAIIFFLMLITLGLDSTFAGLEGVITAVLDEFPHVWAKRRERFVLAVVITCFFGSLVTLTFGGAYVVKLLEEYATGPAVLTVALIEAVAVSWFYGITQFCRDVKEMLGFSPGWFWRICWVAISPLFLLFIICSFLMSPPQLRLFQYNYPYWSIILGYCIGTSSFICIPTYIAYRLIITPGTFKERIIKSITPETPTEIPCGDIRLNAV
KDM3B, sequence (Q7LBC6 whole entry): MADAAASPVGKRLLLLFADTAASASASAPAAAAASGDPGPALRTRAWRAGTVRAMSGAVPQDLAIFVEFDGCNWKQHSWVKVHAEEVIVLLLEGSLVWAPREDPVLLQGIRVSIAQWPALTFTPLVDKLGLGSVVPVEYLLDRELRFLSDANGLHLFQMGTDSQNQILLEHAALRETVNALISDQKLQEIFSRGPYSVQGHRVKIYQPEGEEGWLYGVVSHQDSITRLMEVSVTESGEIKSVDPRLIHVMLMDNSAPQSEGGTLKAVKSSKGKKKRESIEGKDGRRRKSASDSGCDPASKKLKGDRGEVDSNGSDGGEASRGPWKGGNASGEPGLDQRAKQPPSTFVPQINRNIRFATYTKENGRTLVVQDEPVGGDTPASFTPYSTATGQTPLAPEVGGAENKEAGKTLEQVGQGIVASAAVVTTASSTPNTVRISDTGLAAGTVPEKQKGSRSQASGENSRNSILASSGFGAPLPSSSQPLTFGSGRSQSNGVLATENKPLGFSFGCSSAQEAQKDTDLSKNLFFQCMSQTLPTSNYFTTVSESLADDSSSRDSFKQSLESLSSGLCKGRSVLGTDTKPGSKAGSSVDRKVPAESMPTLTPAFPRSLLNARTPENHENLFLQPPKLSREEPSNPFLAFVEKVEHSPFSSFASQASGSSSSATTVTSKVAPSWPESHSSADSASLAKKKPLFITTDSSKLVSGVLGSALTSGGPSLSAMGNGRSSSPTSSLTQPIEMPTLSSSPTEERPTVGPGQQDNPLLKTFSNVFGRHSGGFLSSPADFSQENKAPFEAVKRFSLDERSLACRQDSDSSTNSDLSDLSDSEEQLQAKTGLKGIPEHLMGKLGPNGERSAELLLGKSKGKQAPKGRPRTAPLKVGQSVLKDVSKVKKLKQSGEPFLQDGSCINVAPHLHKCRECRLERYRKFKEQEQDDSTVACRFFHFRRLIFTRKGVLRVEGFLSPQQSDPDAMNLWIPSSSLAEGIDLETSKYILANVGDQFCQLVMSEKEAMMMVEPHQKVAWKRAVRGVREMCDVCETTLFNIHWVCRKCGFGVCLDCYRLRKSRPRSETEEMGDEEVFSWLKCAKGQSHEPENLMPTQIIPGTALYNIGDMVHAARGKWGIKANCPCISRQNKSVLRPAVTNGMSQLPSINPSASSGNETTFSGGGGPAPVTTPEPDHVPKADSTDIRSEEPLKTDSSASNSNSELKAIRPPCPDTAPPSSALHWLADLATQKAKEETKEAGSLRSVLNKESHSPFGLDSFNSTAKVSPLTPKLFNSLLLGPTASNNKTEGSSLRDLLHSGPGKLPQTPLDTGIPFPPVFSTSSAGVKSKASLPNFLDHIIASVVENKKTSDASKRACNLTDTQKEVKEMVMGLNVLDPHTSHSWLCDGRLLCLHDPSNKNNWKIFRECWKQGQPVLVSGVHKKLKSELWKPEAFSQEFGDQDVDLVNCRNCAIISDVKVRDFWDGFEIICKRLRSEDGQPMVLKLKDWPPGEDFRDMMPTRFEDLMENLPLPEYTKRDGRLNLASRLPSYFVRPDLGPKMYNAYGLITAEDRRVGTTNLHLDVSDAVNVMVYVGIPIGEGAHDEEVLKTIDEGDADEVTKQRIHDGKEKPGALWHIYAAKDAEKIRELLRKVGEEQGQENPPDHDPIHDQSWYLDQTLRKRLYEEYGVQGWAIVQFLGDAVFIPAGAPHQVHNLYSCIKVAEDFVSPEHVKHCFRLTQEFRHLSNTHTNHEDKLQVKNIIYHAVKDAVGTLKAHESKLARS
5-HT2B (h), sequence (P41595 whole entry): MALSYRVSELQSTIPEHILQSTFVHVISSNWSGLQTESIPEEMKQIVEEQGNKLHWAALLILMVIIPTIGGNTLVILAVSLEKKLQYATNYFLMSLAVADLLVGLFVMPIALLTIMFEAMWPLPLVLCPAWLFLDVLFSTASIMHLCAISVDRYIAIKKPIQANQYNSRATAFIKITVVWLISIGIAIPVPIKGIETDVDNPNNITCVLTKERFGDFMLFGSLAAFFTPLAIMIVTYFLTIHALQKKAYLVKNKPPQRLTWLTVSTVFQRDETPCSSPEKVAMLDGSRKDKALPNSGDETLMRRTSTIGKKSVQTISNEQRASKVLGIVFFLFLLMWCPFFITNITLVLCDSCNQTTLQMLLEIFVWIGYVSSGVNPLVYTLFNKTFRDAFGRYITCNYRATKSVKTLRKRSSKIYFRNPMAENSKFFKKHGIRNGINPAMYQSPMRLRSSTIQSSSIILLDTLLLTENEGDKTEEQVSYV
NOP (ORL1) (h), sequence (P41146 whole entry): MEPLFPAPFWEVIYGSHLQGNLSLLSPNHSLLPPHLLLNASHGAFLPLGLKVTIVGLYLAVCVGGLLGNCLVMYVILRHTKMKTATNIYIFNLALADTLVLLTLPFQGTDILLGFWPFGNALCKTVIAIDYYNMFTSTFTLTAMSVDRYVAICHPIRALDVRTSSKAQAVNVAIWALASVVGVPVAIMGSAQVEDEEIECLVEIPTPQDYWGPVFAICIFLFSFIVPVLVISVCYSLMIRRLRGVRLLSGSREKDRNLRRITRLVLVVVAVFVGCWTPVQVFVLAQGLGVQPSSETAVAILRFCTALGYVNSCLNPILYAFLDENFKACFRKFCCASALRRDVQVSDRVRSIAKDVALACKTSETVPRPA
mu (MOP) (h), sequence (P35372 whole entry): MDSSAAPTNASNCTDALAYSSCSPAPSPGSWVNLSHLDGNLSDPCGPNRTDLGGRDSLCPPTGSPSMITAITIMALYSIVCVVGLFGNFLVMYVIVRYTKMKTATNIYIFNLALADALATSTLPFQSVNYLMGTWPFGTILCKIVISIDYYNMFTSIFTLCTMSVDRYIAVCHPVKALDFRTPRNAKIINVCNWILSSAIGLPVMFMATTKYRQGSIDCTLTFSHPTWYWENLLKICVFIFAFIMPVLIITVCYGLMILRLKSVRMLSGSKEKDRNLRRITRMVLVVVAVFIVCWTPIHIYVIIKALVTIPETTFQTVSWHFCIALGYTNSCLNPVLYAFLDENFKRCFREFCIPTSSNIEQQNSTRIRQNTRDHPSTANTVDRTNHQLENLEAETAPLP
A3 (h), sequence (P0DMS8 whole entry): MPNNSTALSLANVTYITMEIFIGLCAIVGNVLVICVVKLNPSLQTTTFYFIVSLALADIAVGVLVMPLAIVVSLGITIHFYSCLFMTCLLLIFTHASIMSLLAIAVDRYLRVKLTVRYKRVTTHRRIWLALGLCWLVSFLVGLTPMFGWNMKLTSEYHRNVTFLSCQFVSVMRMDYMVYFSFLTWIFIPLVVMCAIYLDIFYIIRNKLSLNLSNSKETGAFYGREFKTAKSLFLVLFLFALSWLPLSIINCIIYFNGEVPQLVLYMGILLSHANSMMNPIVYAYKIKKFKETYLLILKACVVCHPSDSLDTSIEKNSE
NTS1 (NT1) (h), sequence (P30989 whole entry): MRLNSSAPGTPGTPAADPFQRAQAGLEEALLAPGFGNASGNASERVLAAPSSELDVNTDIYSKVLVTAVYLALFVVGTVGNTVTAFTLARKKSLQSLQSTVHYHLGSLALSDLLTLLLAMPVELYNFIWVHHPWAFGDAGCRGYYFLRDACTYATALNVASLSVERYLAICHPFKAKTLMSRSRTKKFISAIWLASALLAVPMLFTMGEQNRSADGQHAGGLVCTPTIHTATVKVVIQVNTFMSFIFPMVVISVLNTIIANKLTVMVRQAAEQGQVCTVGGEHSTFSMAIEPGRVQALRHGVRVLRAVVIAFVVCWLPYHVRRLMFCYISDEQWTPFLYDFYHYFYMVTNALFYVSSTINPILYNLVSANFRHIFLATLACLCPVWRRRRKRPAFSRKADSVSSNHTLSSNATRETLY
A1 (h), sequence (P30542 whole entry): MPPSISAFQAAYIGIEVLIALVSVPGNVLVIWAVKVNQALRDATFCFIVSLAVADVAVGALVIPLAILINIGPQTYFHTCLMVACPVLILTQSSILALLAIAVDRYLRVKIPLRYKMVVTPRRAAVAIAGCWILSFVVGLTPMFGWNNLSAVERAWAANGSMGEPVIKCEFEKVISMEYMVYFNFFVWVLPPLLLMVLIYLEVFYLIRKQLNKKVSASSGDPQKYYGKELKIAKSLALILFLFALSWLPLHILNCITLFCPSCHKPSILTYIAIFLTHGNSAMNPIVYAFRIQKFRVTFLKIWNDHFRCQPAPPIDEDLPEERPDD

SMILES: CCN(CCN(C)C)C(=O)CNCc1cc(C(N)=O)ccn1 [KDOAM-25]
- inhibition at 10 µM (mu (MOP) (h)): -2%
- inhibition at 10 µM (5-HT2A (h)): -6%
- % Inhibition of reference (10 µM) (Na+ channel (site 2)): 7%
- % Inhibition of reference (10 µM) (sst (non-selective)): 0%
- % Inhibition of reference (10 µM) (KV channel): -4%
- inhibition at 10 µM (delta 2 (DOP) (h)): 2%
- inhibition at 10 µM (5-HT2B (h)): 17%
- IC50 (FIH): > 100 µM
- inhibition at 10 µM (5-HT1B): -1%
- inhibition at 10 µM (A3 (h)): -6%
- % Inhibition of reference (10 µM) (SKCa channel): 5%
- pIC50 KDM3 B (KDM3B): 4.1 ± 0.65
- inhibition at 10 µM (5-HT1A (h)): -7%
- % Inhibition of reference (10 µM) (GABA (non-selective)): -4%
- effect on viability of mesenchymal stem cells [1]: does not decrease cell viability; also recorded: did not show the same decrease in viability
- inhibition at 10 µM (A1 (h)): -3%
- inhibition at 10 µM (5-HT transporter (h)): -2%
- % Inhibition of reference (10 µM) [2]: -1%
- effect on viability of other multiple myeloma cells [3]: does not decrease cell viability; also recorded: did not show the same decrease in viability
- inhibition at 10 µM (D2S (h)): 19%
- inhibition at 10 µM (NTS1 (NT1) (h)): -12%
- inhibition at 10 µM (NOP (ORL1) (h)): -5%
- KDM2A IC50 (KDM2A): 4.4 µM
- intrinsic clearance, in words [4]: low intrinsic clearance
- microsomal CLint ([4]; read-out: RLM Clint): < 1 µL/min/mg
- IC50 (other 2-OG oxygenases): ≥ 4.8 µM
- inhibition at 10 µM (dopamine transporter (h)): 13%
- inhibition at 10 µM (CCK1 (CCKA) (h)): -3%
